Experiments:
Type in all cases: in vivo
[1] = test system: cotton aphid (Aphis gossypii); assay: Aphis gossypii test (cotton seed treatment)
Experimental: (§1) The expected efficacy of a given combination of two compounds is calculated as follows (see Colby, S. R., “Calculating Synergistic and antagonistic Responses of Herbicide Combinations”, Weeds 15, pp. 20-22, 1967):
(§2) If • X is the efficacy expressed in % mortality of the untreated control for test compound A at a concentration of m ppm respectively m g/ha, • Y is the efficacy expressed in % mortality of the untreated control for test compound B at a concentration of n ppm respectively n g/ha, • E is the efficacy expressed in % mortality of the untreated control using the mixture of A and B at m and n ppm respectively m and n g/ha, then is
(§3) If the observed insecticidal efficacy of the combination is higher than the one calculated as “E”, then the combination of the two compounds is more than additive, i.e., there is a synergistic effect.
(§4) If not mentioned otherwise, the crystalline modification I of 4-{[(6-chloropyrid-3-yl)methyl](methyl)amino}furan-2(5H)-one has been prepared as a water-dispersible or water-soluble powder in an active ingredient concentration of 70% (wt/wt) involving the following formulation auxiliaries, whereas the amount of auxiliaries sums up to 100 wt. %:
(§5) The auxiliaries were mixed with the appropriate amount of the crystalline modification I of 4-{[(6-chloropyrid-3-yl)methyl](methyl)amino}furan-2(5H)-one. There is no water or solvent added. To enable the dry mixture to stick on the seed, the seed were treated with a minimal amount of water, namely […] for 2 g canola seeds, and 800 μl für 20 g cotton seeds
Cotton seeds were treated with the compounds or mixtures and sown. 10 days after germination the plants were infested with a mixed population of the cotton aphid (Aphis gossypii). After the specified period of time, the mortality in % is determined. 100% means that all the aphids have been killed; 0% means that none of the aphids have been killed.

[2] = test system: green peach aphid (Myzus persicae); assay: Myzus persicae test (oil seed rape seed treatment)
Experimental: as §1, §2, §3, §4, §5
Seeds of Oil seed rape were treated with the compounds or mixtures and sown. Ca. 35 days after germination the plants were infested with a mixed population of the green peach aphid (Myzus persicae). After the specified period of time, the mortality in % is determined. 100% means that all the aphids have been killed; 0% means that none of the aphids have been killed.

[3] = test system: larvae of the mustard beetle (Phaedon cochleariae); assay: Phaedon cochleariae larvae test (oil seed rape seed treatment)
Experimental: as §1, §2, §3, §4, §5
Seeds of Oil seed rape were treated with the compounds or mixtures and sown. Ca. 35 days after germination the plants were infested with a larvae of the mustard beetle (Phaedon cochleariae). After the specified period of time, the mortality in % is determined. 100% means that all the beetle larvae have been killed; 0% means that none of the beetle larvae have been killed.

CN(Cc1ccc(Cl)nc1)C1=CC(=O)OC1 [4-{[(6-chloropyrid-3-yl)methyl](methyl)amino}furan-2(5H)-one]
Kill rate [in % after 2 days] ([1]; 0.01 mg ai/grain): 63% | Kill rate [in % after 1 day] ([1]; 0.025 mg ai/grain): 0% | Kill rate [in % after 2 days] ([1]; 0.025 mg ai/grain): 80% | Kill rate [in % after 2 days] ([2]; 0.01 mg ai/grain): 10% | Kill rate [in % after 7 days] ([2]; 0.01 mg ai/grain): 0% | Kill rate [in % after 3 days] ([2]; 0.025 mg ai/grain): 0% | Kill rate [in % after 4 days] ([3]; 0.01 mg ai/grain): 0% | Kill rate [in % after 5 days] ([3]; 0.025 mg ai/grain): 5.56%

Cn1cc(C(=O)Nc2ccc(F)cc2-c2ccc(Cl)c(Cl)c2)c(C(F)F)n1 [Bixafen]
Kill rate [in % after 2 days] ([1]; 0.5 mg ai/grain): 0%

CCC1(C(=O)N[C@H](C)c2ccc(Cl)cc2)C(C)C1(Cl)Cl (some centres unmarked) [Carpropamid]
Kill rate [in % after 1 day] ([1]; 0.5 mg ai/grain): 0%

CSC1=N[C@@](C)(c2ccccc2)C(=O)N1Nc1ccccc1 [Fenamidone]
Kill rate [in % after 3 days] ([2]; 0.5 mg ai/grain): 0% | Kill rate [in % after 7 days] ([2]; 0.5 mg ai/grain): 0%

CC1(C(=O)Nc2ccc(O)c(Cl)c2Cl)CCCCC1 [Fenhexamid]
Kill rate [in % after 2 days] ([1]; 0.5 mg ai/grain): 0%

N#Cc1c[nH]cc1-c1cccc2c1OC(F)(F)O2 [Fluodioxonil, Fludioxonil]
Kill rate [in % after 4 days] ([3]; 05 mg ai/grain (so in the source)): 0%

O=C(NCc1ncc(C(F)(F)F)cc1Cl)c1c(Cl)cccc1Cl [Fluopicolide]
Kill rate [in % after 5 days] ([3]; 1 mg ai/grain): 0%

CCO[PH](=O)O [Fosetyl-Al]
Kill rate [in % after 2 days] ([2]; 1 mg ai/grain): 0%

CON=C(C(=O)OC)c1ccccc1CON=C(C)c1cccc(C(F)(F)F)c1 [Trifloxystrobin]
Kill rate [in % after 1 day] ([1]; 0.5 mg ai/grain): 0%
